# Experimental data: paper PMC10831071, “Reaction hijacking inhibition of Plasmodium falciparum asparagine tRNA synthetase” (Nature Communications, 2024)
# Values joined by “and” are separate entries in the source; they are usually repeats but may differ in a detail not shown here. Identical values can stand only once. Like-named read-outs stand apart in the source and are kept apart here.
# How the values were obtained:
# [1] = molecular target: PfAsnRS (Plasmodium falciparum, UniProt O96198); assay: biochemical; conditions: PfAsnRS
# Sequence of PfAsnRS (O96198 entry or part of it): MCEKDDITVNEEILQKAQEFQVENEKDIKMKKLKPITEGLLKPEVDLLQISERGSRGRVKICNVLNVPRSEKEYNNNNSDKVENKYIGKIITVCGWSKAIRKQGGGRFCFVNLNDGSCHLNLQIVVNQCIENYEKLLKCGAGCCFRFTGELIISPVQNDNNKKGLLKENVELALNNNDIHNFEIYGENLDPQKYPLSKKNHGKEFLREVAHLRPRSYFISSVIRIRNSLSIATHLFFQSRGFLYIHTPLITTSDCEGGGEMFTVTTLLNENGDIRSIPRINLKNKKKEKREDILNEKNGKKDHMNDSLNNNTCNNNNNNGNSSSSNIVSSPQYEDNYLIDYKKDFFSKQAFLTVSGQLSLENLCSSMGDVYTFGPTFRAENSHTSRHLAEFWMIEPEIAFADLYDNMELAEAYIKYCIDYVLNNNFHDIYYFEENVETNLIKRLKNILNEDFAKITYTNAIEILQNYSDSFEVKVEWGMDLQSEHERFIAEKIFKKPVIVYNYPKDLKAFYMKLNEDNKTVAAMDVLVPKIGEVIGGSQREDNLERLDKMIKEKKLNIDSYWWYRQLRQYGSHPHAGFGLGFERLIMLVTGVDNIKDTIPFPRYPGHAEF
# [2] = molecular target: T1, HsAsnRS (Homo sapiens, UniProt O43776); assay: ATP consumption assay (Kinase-Glo), HsAsnRS; format: biochemical; conditions: for ATP consumption: HsAsnRS, normalised to 1 (Fig 3E)
# T1 construct: HsAsnRS (residues M1–P548) and CDHsAsnRS (residues A98–P548); His6 (N, cleaved yes); made in house; host or cells: E. coli BL21 (DE3), pET11a
# T1 sequence (O43776 1-548): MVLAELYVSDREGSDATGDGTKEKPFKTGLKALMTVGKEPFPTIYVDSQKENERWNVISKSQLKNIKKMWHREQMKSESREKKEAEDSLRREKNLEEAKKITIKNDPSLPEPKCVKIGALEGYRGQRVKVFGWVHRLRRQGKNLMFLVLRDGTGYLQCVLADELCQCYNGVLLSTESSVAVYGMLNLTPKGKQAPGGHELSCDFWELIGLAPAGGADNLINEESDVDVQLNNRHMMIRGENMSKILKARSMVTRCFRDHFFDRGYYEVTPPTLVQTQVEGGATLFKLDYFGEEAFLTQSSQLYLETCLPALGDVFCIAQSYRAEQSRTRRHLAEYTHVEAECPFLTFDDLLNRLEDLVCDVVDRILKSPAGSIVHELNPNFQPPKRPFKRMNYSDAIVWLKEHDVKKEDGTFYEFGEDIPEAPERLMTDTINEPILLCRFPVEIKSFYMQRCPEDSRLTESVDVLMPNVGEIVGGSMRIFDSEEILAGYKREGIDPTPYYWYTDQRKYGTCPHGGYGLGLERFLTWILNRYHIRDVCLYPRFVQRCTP
# [3] = test system: P. falciparum Cam3.II-rev; assay: Drug pulse (6 h) viability assay; format: cell-based, Plasmodium falciparum; conditions: for IC50: read-out: IC50 (Viability)
# Description: (§1) Viability was assessed in the second cycle by flow cytometry, following labeling with 2 μM Syto-61 (Thermo Fisher Scientific)[48],[49]. Viability represents the parasitemia normalized to untreated and “kill” controls that were treated with 2 μM dihydroartemisinin (DHA; Sigma-Aldrich) for 48–72 h. For drug pulse assays, tightly synchronized Cam3.II-rev[50] parasites (1–1.5% parasitemia, 0.2% final hematocrit) were added to the plates and incubated for 6 h. Drugs were removed and the parasitemia assessed in the trophozoite stage of the next cycle.
# [4] = test system: protein translation in P. falciparum trophozoites (Cam3.II-rev); assay: Protein translation assay (OPP incorporation); format: cell-based, Plasmodium falciparum; conditions: for Translation: individual experiments, 0 nM = 100; for IC50: read-out: IC50 (Translation)
# Description: O-propargyl-puromycin (OPP) (Abcam) was added to the culture and incubated for a further 2 h. Parasites were washed three times in 1 × PBS (Gibco™) and fixed with 4% formaldehyde (Polysciences) and 0.02% glutaraldehyde (Sigma) in 1 × PBS for 20 min at room temperature (RT). Cells were washed two times with buffer A (3% human serum in 1 × PBS). Pellets were permeabilized in buffer A containing 0.05% Triton® X-100 and washed two times with buffer A. Fixed-permeabilized cells were subjected to copper-catalyzed azide–alkyne cycloaddition (CuAAC) at 37 °C for 1 h in the presence of 0.1 mM CuSO4, 0.5 mM THPTA, 5 mM sodium ascorbate, and 0.1 μM Alexa Fluor 488 azide in buffer A. Pellets were washed four times in buffer A and resuspended in buffer A containing 25 μg/ml propidium iodide (Invitrogen™). Cells were interrogated by flow cytometry (FACS Canto II; BD Biosciences, San Jose, CA) using FITC and Cy™5.5 channels.
# [5] = test system: P. falciparum (3D7); assay: Activity against P. falciparum 3D7 cultures, 72 h (PfLDH growth inhibition / flow cytometry); format: cell-based, Plasmodium falciparum
# Description: Antimalarial activity against P. falciparum 3D7 was tested by TCGLS, Kolkata, India, using the lactate dehydrogenase (PfLDH) growth inhibition assay. […] Plates were shaken to ensure mixing and were placed in the dark at 21 °C for 20 min. […] P. falciparum strain (3D7) was obtained from BEI Resources.
# as §1
# [6] = 78.1 nM, 6 h pulse, individual experiments, 0 nM = 100
# [7] = 156.3 nM, 6 h pulse, individual experiments, 0 nM = 100
# [8] = 312.5 nM, 6 h pulse, individual experiments, 0 nM = 100
# [9] = 625 nM, 6 h pulse, individual experiments, 0 nM = 100
# [10] = 1250 nM, 6 h pulse, individual experiments, 0 nM = 100
# [11] = 2500 nM, 6 h pulse, individual experiments, 0 nM = 100
# [12] = 5000 nM, 6 h pulse, individual experiments, 0 nM = 100
# [13] = 10000 nM, 6 h pulse, individual experiments, 0 nM = 100
# [14] = 20000 nM, 6 h pulse, individual experiments, 0 nM = 100
# [15] = Plasmodium falciparum, 3D7, 72 h, read-out: Pf3D7 IC50 (72h), individual biological repeats (source data of Table 1)
# [16] = Plasmodium falciparum, 3D7, 72 h, read-out: Pf3D7 IC50(72 h), 72 h, mean ± SD or duplicate values
# [17] = read-out: Pf3D7 IC50 (72h), individual biological repeats (source data of Table 1)
structure (smiles),measurement,setting,value
NC(=O)C[C@H](N)C(=O)NS(=O)(=O)c1cccc(-c2cc3ncnc(N)c3s2)c1 [Asn-OSM-S-106],ATP consumption,"[1]; 0.005 μM Asn-OSM-S-106, 0 μM = 100 (Fig 3F), 0.005 µM",96.6227 and 115.849 and 86.517 and 87.5323
same,ATP consumption,"[1]; 0.05 μM Asn-OSM-S-106, 0 μM = 100 (Fig 3F), 0.05 µM",102.641 and 101.648 and 126.552 and 109.716 and 83.8806 and 85.0945
same,ATP consumption,"[1]; 0.1 μM Asn-OSM-S-106, normalised to 1 (Fig 3E), 0.1 µM",0.9937 and 0.8109
same,ATP consumption,"[1]; 0.5 μM Asn-OSM-S-106, 0 μM = 100 (Fig 3F), 0.5 µM",95.6169 and 98.8652 and 117.558 and 102.603 and 76.814 and 78.5601
same,ATP consumption,"[1]; 1 μM Asn-OSM-S-106, normalised to 1 (Fig 3E), 1 µM",0.8236 and 0.8406
same,ATP consumption,"[1]; 3 μM Asn-OSM-S-106, normalised to 1 (Fig 3E), 3 µM",0.3452 and 0.4265
same,ATP consumption,"[1]; 10 μM Asn-OSM-S-106, normalised to 1 (Fig 3E), 10 µM",0.09706 and 0.1733
same,ATP consumption,[2]; 0.1 μM Asn-OSM-S-106,1 and 0.9164 and 0.9986
same,ATP consumption,[2]; 0.3 μM Asn-OSM-S-106,0.9525 and 1
same,IC50,[2]; 0.5 μM enzyme without tRNA (Fig. 3E),12 µM
same,ATP consumption,[2]; 1 μM Asn-OSM-S-106,0.8864 and 0.9489 and 0.9329
same,ATP consumption,[2]; 3 μM Asn-OSM-S-106,0.7684 and 0.8281 and 0.785
same,ATP consumption,[2]; 10 μM Asn-OSM-S-106,0.5231 and 0.5272 and 0.5151
same,ATP consumption,[2]; 30 μM Asn-OSM-S-106,0.2926 and 0.3365 and 0.2915
same,ATP consumption,[2]; 100 μM Asn-OSM-S-106,0.09965 and 0.131 and 0.08856
C[C@@H]1C[C@@H]([C@H](O)CC2CC(=O)NC(=O)C2)C(=O)[C@@H](C)C1 [Cycloheximide],Viability,"[3]; 39.1 nM, 6 h pulse, individual experiments, 0 nM = 100",97.4339 and 92.233
same,Viability,[3]; [6],94.7793 and 98.0583
same,Viability,[3]; [7],102.013 and 98.7864
same,Viability,[3]; [8],97.9775 and 92.233
same,Viability,[3]; [9],92.6066 and 91.9903
same,Viability,[3]; [10],79.0045 and 78.3981
same,Viability,[3]; [11],100.147 and 80.518 and 75
same,Viability,[3]; [12],78.8213 and 75.2427
same,Viability,[3]; [13],77.1877 and 75
same,Viability,[3]; [14],95.0102 and 69.6652 and 71.1165
same,viability at 0.0391 µM,"[3]; Plasmodium falciparum, 6 h, 39.1 nM, 6 h pulse, individual experiments, 0 nM = 100",108%
same,viability at 0.0781 µM,"[3]; Plasmodium falciparum, 6 h, 78.1 nM, 6 h pulse, individual experiments, 0 nM = 100",95.9%
same,viability at 0.1563 µM,"[3]; Plasmodium falciparum, 6 h, 156.3 nM, 6 h pulse, individual experiments, 0 nM = 100",109%
same,viability at 0.3125 µM,"[3]; Plasmodium falciparum, 6 h, 312.5 nM, 6 h pulse, individual experiments, 0 nM = 100",104%
same,viability at 0.625 µM,"[3]; Plasmodium falciparum, 6 h, 625 nM, 6 h pulse, individual experiments, 0 nM = 100",102%
same,viability at 1.25 µM,"[3]; Plasmodium falciparum, 6 h, 1250 nM, 6 h pulse, individual experiments, 0 nM = 100",95%
same,viability at 5 µM,"[3]; Plasmodium falciparum, 6 h, 5000 nM, 6 h pulse, individual experiments, 0 nM = 100",95.1%
same,viability at 10 µM,"[3]; Plasmodium falciparum, 6 h, 10000 nM, 6 h pulse, individual experiments, 0 nM = 100",88.3%
same,IC50,"[3]; Plasmodium falciparum, 6 h",> 1 µM
same,Translation,"[4]; 39.1 nM, 6 h exposure",91.0615 and 76.2984 and 81.7995
same,Translation,"[4]; 78.1 nM, 6 h exposure",81.922 and 88.5493 and 60.1275
same,Translation,"[4]; 156.3 nM, 6 h exposure",69.0756 and 65.574 and 56.5841
same,Translation,"[4]; 312.5 nM, 6 h exposure",54.5569 and 51.3303 and 54.0173
same,Translation,"[4]; 625 nM, 6 h exposure",34.3298 and 36.573 and 53.0328
same,Translation,"[4]; 1250 nM, 6 h exposure",29.8359 and 24.3187 and 24.0049
same,Translation,"[4]; 2500 nM, 6 h exposure",20.2838 and 21.5354 and 22.6499
same,Translation,"[4]; 5000 nM, 6 h exposure",16.1089 and 19.5652 and 16.2965
same,Translation,"[4]; 10000 nM, 6 h exposure",8.675 and 13.4553 and 5.495
same,Translation,"[4]; 20000 nM, 6 h exposure",7.645 and 6.944 and 4.617
same,IC50,[4]; Plasmodium falciparum,0.331 µM
Cc1ccc(S(N)(=O)=O)cc1-c1cc2ncnc(N)c2s1 [OSM-E-32],IC50,[5]; [15],8.33 µM
Nc1ncnc2cc(-c3cccc(COS(N)(=O)=O)c3)sc12 [OSM-LO-81],IC50,[5]; [16],0.93 ± 0.24 µM
same,IC50,[5]; [15],1.1 µM
same,IC50,"[5]; Plasmodium falciparum, 3D7, read-out: activity against 3D7 cultures, value of earlier manuscript version quoted by reviewer, peer review file",0.9 µM
same,IC50,[5]; [17],1.33 µM and 0.74 µM and 0.761 µM and 0.909 µM and 0.753 µM
NS(=O)(=O)c1cccc(-c2ccc3c(=O)[nH]cnc3c2)c1 [OSM-LO-87],antimalarial potency (in words),[5]; 3D7 cultures,no antimalarial potency
same,IC50,[5]; [16],> 25 µM
same,IC50,[5]; [15],> 25 µM
same,IC50,[5]; [17],> 25 µM
NS(=O)(=O)c1cccc(-c2cc3nc[nH]c(=O)c3s2)c1 [OSM-LO-88],IC50,[5]; [16],18.7 ± 1.8 µM
same,IC50,[5]; [15],19.2 µM
same,IC50,[5]; [17],21.9 µM and 18.6 µM and 17.5 µM and 16.5 µM
NS(=O)(=O)c1cccc(-c2cc3ncnc(N4CCN(Cc5ccc(F)cc5)CC4)c3s2)c1 [OSM-S-137],IC50,[5]; [16],4.4 ± 3 µM
same,IC50,[5]; [17],2.65 µM and 1.2 µM and 6.07 µM and 7.69 µM
CNS(=O)(=O)c1cccc(-c2cc3ncnc(N)c3s2)c1 [OSM-S-488],IC50,[5]; [15],12.7 µM
same,IC50,[5]; [17],13.8 µM
CC1(C)N=C(N)N=C(N)N1OCCCOc1cc(Cl)c(Cl)cc1Cl [WR99210],Viability,[3]; [6],90.9718 and 69.2733 and 98.7384
same,Viability,[3]; [7],76.1805 and 35.562 and 55.9172
same,Viability,[3]; [8],32.1885 and 5.756 and 17.0102
same,Viability,[3]; [9],6.692 and 4.516 and 3.401
same,Viability,[3]; [10],5.505 and 0.4167 and 0.2921
same,Viability,[3]; [11],3.52 and 0.4893 and 0.1273
same,Viability,[3]; [12],3.786 and 0.4893 and 2.194
same,Viability,[3]; [13],2.477 and 1.7781 and 0.09123
same,Viability,[3]; [14],0 and 0.969 and 1.737
same,Viability,"[3]; 40000 nM, 6 h pulse, individual experiments, 0 nM = 100",3.358 and 0 (2×)
same,IC50,"[3]; 6 h pulse, viability at trophozoite stage of next cycle",0.0009 µM
same,Translation,"[4]; 78.1 nM, 6 h exposure",90.9036 and 76.9712 and 89.4018
same,Translation,"[4]; 156.3 nM, 6 h exposure",89.4578 and 82.2873 and 81.3601
same,Translation,"[4]; 312.5 nM, 6 h exposure",91.0241 and 91.4005 and 91.4867
same,Translation,"[4]; 625 nM, 6 h exposure",83.5542 and 90.7751 and 99.6277
same,Translation,"[4]; 1250 nM, 6 h exposure",82.5301 and 79.1155 and 98.3867
same,Translation,"[4]; 2500 nM, 6 h exposure",84.3976 and 81.0364 and 102.259
same,Translation,"[4]; 5000 nM, 6 h exposure",88.5542 and 92.6513 and 94.4155
same,Translation,"[4]; 10000 nM, 6 h exposure",97.2892 and 85.5484 and 98.6845
same,Translation,"[4]; 20000 nM, 6 h exposure",112.47 and 92.0706 and 98.0392
same,Translation,"[4]; 40000 nM, 6 h exposure",103.313 and 81.0364 and 102.259
same,IC50,"[4]; 6 h exposure, OPP in last 2 h, Cam3.II-rev trophozoites",> 1 µM
